The results in this text go back to publication PMC8162347, “Bolaamphiphilic Bis-Dehydropeptide Hydrogels as Potential Drug Release Systems” (Gels, 2021).

A short description of data set [1]: Gelation study, pH trigger with GdL, vial inversion test. It is filed as physicochemical. As to conditions: for pH (gelation conditions): pH of hydrogel at cgc after GDL 0.4 wt %; for Critical Gelation Concentration (cgc): vial inversion test, water, NaOH (1 M) to circa pH 10, then GDL 0.4 wt %. From the text:
Nonetheless, dimeric dehydropeptides 1–4 could be dissolved in water upon pH adjustment to pH 10–11, which was achieved by addition of NaOH solution (1 M). Gel formation was triggered by a slow pH drop. The pH change was obtained by the aqueous hydrolysis of added D-glucono-δ-lactone (GdL) to D-gluconic acid. […] The CGCs of hydrogels 1–3 were qualitatively assessed by varying the peptide concentrations and conducting vial inversion tests.
Dehydrodipeptides 1, 2 and 3 were weighed into sample vials, water was added, and the suspension was adjusted under magnetic stirring to circa pH 10 (pH meter) by the addition of NaOH (1 M), and D-glucono-δ-lactone (GDL) was added. The solutions were left standing overnight at room temperature (20–25 °C).

The nature of data set [2]: Oscillatory rheology of hydrogels. In kind it is physicochemical. As to conditions: for k (growth rate constant) / kn (nucleation rate constant): fit of Equation (1) to gelation kinetics; for dG: fit of Equation (1), increment in storage modulus during the kinetics; for Initial time lag before the significant rise in G′: gelation kinetics, 0.001% strain; for Initial time lag before the significant rise in G′ / G′ / G″: 25 °C; for Initial time lag before the significant rise in G′ / Thermal stability of gel (variation of G′): 1 Hz; for Thermal stability of gel (variation of G′): heating–cooling cycle between 25 and 40 °C, 1 °C/min, strain 0.005%; for G′ / G″: hydrogel at structural equilibrium, frequency sweep 100 to 0.1 Hz, strain 0.01%. The text has this:
This is due to the rather small deformation used during this test to allow gel formation without disturbing the build-up of the network structure. In contrast to this, see the data for compounds 1 and 2. A two-step model is often used to describe the nucleation (with rate constant kn) and growth (with rate constant k) of aggregates of peptides:(1) f(t) = G0 + dGρ(e^(1+ρ)kt − 1)/1 + ρe^(1+ρ)kt where ρ = kn/k , G0 is the initial storage modulus of the aggregate-free solution, and dG is the increment in the storage modulus during the kinetics.
After reaching the structural equilibrium established by the reading of constant shear moduli G′ and G″ with time, a frequency-sweep from 100 down to 0.1 Hz was performed with a strain of 0.01% (Figure S6 in Supplementary Information). For hydrogels obtained from compounds 1, 2, and 3, G′ is essentially constant over the frequency domain tested, and it is 10 times larger than G″. Overall, all mechanical spectra are qualitatively similar and reminiscent of the rheological signature of gels, as G′ is higher than G″ for hydrogels of compounds 1–3 (Table 3). ′
After the thermal cycle, gels were submitted to a strain sweep, where the frequency was maintained at 1 Hz. The hydrogels of compounds 2 and 1 break up more easily than hydrogel of compound 3 (Figure 7). […] In summary, and connecting the rheological data to the structural information inferred from both STEM and CD, coil conformers of compound 2 rapidly self-assemble to build a rubber-like (entropic) network, which brings most of the gel elasticity. This is in contrast to the elastically weaker gels of compound 3, which are predominantly made from the networking of fibrils likely formed from beta conformers. Gels of compound 1 show intermediate elasticity, originating from the slower networking of a mixture of coil and beta sheet conformers.
The viscoelastic characterization of hydrogels was performed with a stress-controlled rotational rheometer Anton Paar MCR300 (Anton Paar GmbH, Graz, Austria). Gel-forming solutions were loaded in the shearing geometry (a Couette cell with 1 mL volume and 0.5 mm gap) at 25 °C. The liquid sample was pre-sheared at a shear rate of 5 s^−1 during one minute to homogenize the sample in the shearing geometry. Then, the gelation kinetics was monitored during 10 h by applying a small amplitude (0.001%) oscillatory shear at 1 Hz and recording both storage (G′) and loss (G″) moduli at each second. Then, mechanical spectra were recorded, and gels were submitted to a heating–cooling cycle between 25 and 40 °C at a rate of +/−1 °C/min. Finally, gels were submitted to a strain sweep.

Setting [3] is: standing overnight at room temperature (20–25 °C).

`O=C(O)/C(=C/c1ccccc1)NC(=O)[C@H](Cc1ccccc1)NC(=O)c1ccc(C(=O)N[C@@H](Cc2ccccc2)C(=O)N/C(=C\c2ccccc2)C(=O)O)cc1` [Compound 1]: the “pH (gelation conditions)” value in data set [1] came out at 5.10. For the same compound, the “Critical Gelation Concentration (cgc)” value in data set [1] (overnight at room temperature) came out at 4.0 mM. Also, the “Critical Gelation Concentration (cgc)” value in data set [1] (setting [3]) came to 0.3 wt %. For the same compound, in data set [2], the “k (growth rate constant)” value amounted to 0.18 ± 0.10 h⁻¹, the “kn (nucleation rate constant)” value amounted to 0.40 ± 0.04 h⁻¹, the dG is 2392 ± 66 Pa and the “Initial time lag before the significant rise in G′” value stood at 2300 s. In addition, in data set [2], the “Thermal stability of gel (variation of G′)” value is recorded as “not thermally sensitive”, the “G′” value is listed as 2.5 × 10^3 Pa and the “G″” value is given as 6.5 × 10^1 Pa.

With `O=C(O)/C(=C/c1ccccc1)NC(=O)[C@H](Cc1ccc(O)cc1)NC(=O)c1ccc(C(=O)N[C@@H](Cc2ccc(O)cc2)C(=O)N/C(=C\c2ccccc2)C(=O)O)cc1` [Compound 2], the “pH (gelation conditions)” value in data set [1] came out at 4.15. For the same compound, the “Critical Gelation Concentration (cgc)” value in data set [1] (overnight at room temperature) stood at 5.1 mM. The “Critical Gelation Concentration (cgc)” value in data set [1] (setting [3]) is recorded as 0.4 wt %. This compound gave a G0 in data set [2] (fit of Equation (1) (Saitô) to gelation kinetics, initial storage modulus) of 0 ± 25 Pa. In addition, in data set [2], the “k (growth rate constant)” value came out at 1.84 ± 0.04 h⁻¹, the “kn (nucleation rate constant)” value came out at 0.02 ± 0.001 h⁻¹, the dG is given as 5722 ± 39 Pa and the “Initial time lag before the significant rise in G′” value stood at 4600 s. Further, in data set [2], the “Thermal stability of gel (variation of G′)” value is “shows a thermal hysteresis”, the “G′” value is listed as 4.5 × 10^3 Pa and the “G″” value is recorded as 1.4 × 10^2 Pa.
